Test results taken from patent publication US20120272343A1, “STROMAL INTERACTING MOLECULE KNOCKOUT MOUSE AND USES THEREOF” (IMMUNE DISEASE INSTITUTE, INC., priority 2007, published 2012).

Tested on: CRAC current (ICRAC)
Assay: Whole cell patch-clamp recordings of CRAC current in differentiated CD4+ T cells
Assay type: cell-based, mouse
Settings: for increase in current amplitude following 2-APB application: thapsigargin-pretreated, 2-APB 40 μM, step to −100 mV
Procedure: CD4^+ T cells were cultured in non-polarizing conditions and harvested at day 5. Patch-clamp recordings were performed using an Axopatch 200 amplifier (Axon Instruments) interfaced to an ITC-18 input/output board (Instrutech) and an iMac G5 computer. Currents were filtered at 1 kHz with a 4-pole Bessel filter and sampled at 5 kHz. Recording electrodes were pulled from 100-μl pipettes, coated with Sylgard, and fire-polished to a final resistance of 2-5 MΩ. Stimulation and data acquisition and analysis were performed using in-house routines developed on the Igor Pro platform (Wavemetrics). All data were corrected for the liquid junction potential of the pipette solution relative to Ringer's in the bath (10 mV) and for leak currents collected in 20 mM [Ca^2+]o+25 μM La^3+. The standard extracellular Ringer solution contained (in mM): 130 NaCl, 4.5 KCl, 20 CaCl2, 1 MgCl2, 10 D-glucose, and 5 Na-Hepes (pH 7.4). In some experiments, 2 mM CaCl2 was used in the standard extracellular solution and the NaCl concentration was raised to 150 mM. The standard divalent-free (DVF) Ringer solutions contained (in mM) 150 NaCl, 10 mM tetraacetic acid, 1 mM EDTA and 10 mM Hepes (pH 7.4). 25 nM charybdotoxin (Sigma) was added to all extracellular solutions to eliminate contamination from Kv1.3 channels. […] Averaged results are presented as the mean value±s.e.m. Curve fitting was done by least-squares methods using built-in functions in Igor Pro 5.0. The permeability of Cs^+ relative to that of Na^+ was calculated from the bionic reversal potential using the relation:

Structure (SMILES): [Ca+2] [Ca^2+]
- block of Na+ CRAC currents (wild-type mouse T cells, 20 μM Ca2+): ~50%

Structure (SMILES): NCCOB(c1ccccc1)c1ccccc1 [2-APB, 2-Aminoethoxydiphenyl borate]
- increase in current amplitude following 2-APB application (STIM2-deficient T cells, n=5): 30±7%
- increase in current amplitude following 2-APB application (control T cells, n=4): 26±6%
